Source: patent US10927146B2, “Peptidyl ketoamides as inhibitors of rhomboid proteases” (priority 2017, dated 2021)
“Also recorded” adds a separate entry of the source.

What was measured:
[1] = target: model rhomboid protease GlpG (Escherichia coli, UniProt P09391); assay: In vitro inhibition of rhomboid protease GlpG (IC50 and Ki, as described in Ticha et al., 2017); type: biochemical, E. coli; conditions: for Ki: read-out: Ki Range
Description: The in vivo activity of the compounds against GlpG according to the invention is in the low nanomolar range (FIG. 1), which is up to three orders of magnitude better than any other currently used rhomboid inhibitors. The co-crystal structures of these compounds with rhomboid protease (FIG. 2) show their mode of binding into the active site of rhomboid. Without wishing to be bound by such a theory, it appears that the ketoamide warhead covalently bonds to the catalytic serine, and extensively hydrogen bonds throughout the active site. The tail at the ketoamide nitrogen interacts with the S2′ pocket of rhomboid, engaging in a number of van der Waals contacts.

[2] = tested on: Plasmodium falciparum rhomboid 4 (PfROM4); assay: PfROM4 cell culture assay: shedding of EBA175 in transfected HEK293ET cells; type: cell-based; conditions: HEK293ET cells transfected with PfROM4 and substrate EBA175; approximate, FIG. 3
Description: (A) HEK293ET cells were transfected with plasmids encoding PfROM4 and its substrate EBA175, and the shedding of EBA175 by PfROM4 into the medium under various concentrations of Compound 16 was quantitated by near-infrared fluorescence detected Western blotting. (B) Dose-response analysis of PfROM4 inhibition by Compound 16.

model rhomboid protease GlpG, sequence (P09391 whole entry): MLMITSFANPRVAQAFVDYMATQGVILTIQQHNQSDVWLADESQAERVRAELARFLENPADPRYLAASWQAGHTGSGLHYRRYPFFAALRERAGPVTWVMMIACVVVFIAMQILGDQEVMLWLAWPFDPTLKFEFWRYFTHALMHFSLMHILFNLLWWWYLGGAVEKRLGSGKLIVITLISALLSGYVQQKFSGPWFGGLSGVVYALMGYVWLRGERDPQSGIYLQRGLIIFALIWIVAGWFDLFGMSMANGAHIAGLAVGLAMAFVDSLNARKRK

| SMILES | Ki [1] [nM] | other results |
| --- | --- | --- |
| CC(=O)C(=O)[C@H](CCCNC(=N)N)NC(=O)[C@@H](NC(=O)[C@H](CCCNC(=N)N)NC(=O)[C@H](Cc1cnc[nH]1)NN[C@@H](C)C(=O)C(=O)NCCc1ccccc1)C(C)C [Compound 9] | 10 to 100 | – |
| CC(=O)C(=O)[C@H](CCCNC(=N)N)NC(=O)[C@@H](NC(=O)[C@H](CCCNC(=N)N)NC(=O)[C@H](Cc1cnc[nH]1)NN[C@@H](C)C(=O)C(=O)NCc1cc(C)ccc1C)C(C)C [Compound 10] | 10 to 100 | – |
| CC(=O)C(=O)[C@H](CCCNC(=N)N)NC(=O)[C@@H](NC(=O)[C@H](CCCNC(=N)N)NC(=O)[C@H](Cc1cnc[nH]1)NN[C@@H](C)C(=O)C(=O)NCCCCc1ccccc1)C(C)C [Compound 11] | 10 to 100 | – |
| CC(=O)C(=O)[C@@H](NC(=O)[C@H](CCCNC(=N)N)NC(=O)[C@H](Cc1cnc[nH]1)NN[C@@H](C)C(=O)C(=O)NCCc1ccccc1)C(C)C [Compound 12] | – | IC50 [1]: 550 nM |
| CC(=O)C(=O)[C@H](CCCNC(=N)N)NC(=O)[C@@H](NC(=O)[C@H](Cc1c[nH]c2ccccc12)NC(=O)[C@H](Cc1cnc[nH]1)NN[C@@H](C)C(=O)C(=O)NCCCCc1ccccc1)C(C)C [Compound 16] | – | IC50 of PfROM4 inhibition [2]: micro- to submicromolar range; also recorded: micromolar to submicromolar concentrations |
